Test results from ChEMBL document CHEMBL1201862, “PubChem BioAssay data set” (2004).
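96-well plates; 48 h exposure; 5 concentrations. Endpoints by linear interpolation between flanking doses. Not reached: highest tested concentration assigned. GI50 is the concentration that inhibits growth by half.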 Calls of active or inactive are those of the source. Cut-off read from the data, not from the text of the source: active = GI50 up to about 1.1 µM and inactive = higher.

What was measured:
Assay in all cases: DTP human tumour cell line panel, 48 h
[1] = tested on: A549
[2] = tested on: SW-620
[3] = tested on: HT-29
[4] = tested on: SR
[5] = tested on: DU-145
[6] = tested on: ACHN
[7] = tested on: K562
[8] = tested on: MDA-N
[9] = tested on: EKVX
[10] = tested on: MOLT-4
[11] = tested on: IGROV-1
[12] = tested on: NCI-H522
[13] = tested on: M14
[14] = tested on: Hs-578T
[15] = tested on: HOP-92
[16] = tested on: 786-0
[17] = tested on: MDA-MB-231
[18] = tested on: SF-539
[19] = tested on: HCC 2998
[20] = tested on: PC-3
[21] = tested on: MDA-MB-435
[22] = tested on: NCI-H23
[23] = tested on: SNB-19
[24] = tested on: UO-31
[25] = tested on: MCF7
[26] = tested on: SK-MEL-28
[27] = tested on: SF-268
[28] = tested on: TK-10
[29] = tested on: SF-295
[30] = tested on: U-251
[31] = tested on: OVCAR-8
[32] = tested on: RPMI-8226
[33] = tested on: Malme-3M
[34] = tested on: SNB-75
[35] = tested on: NCI-H226
[36] = tested on: CAKI-1
[37] = tested on: SK-MEL-2
[38] = tested on: COLO 205
[39] = tested on: OVCAR-3
[40] = tested on: SK-MEL-5
[41] = tested on: SN12C
[42] = tested on: RXF 393
[43] = tested on: NCI-H460
[44] = tested on: HCT-116
[45] = tested on: UACC-257
[46] = tested on: OVCAR-4
[47] = tested on: CCRF-CEM
[48] = tested on: KM12
[49] = tested on: NCI/ADR-RES
[50] = tested on: BT-549
[51] = tested on: T47D
[52] = tested on: UACC-62
[53] = tested on: LOX IMVI
[54] = tested on: HOP-62
[55] = tested on: A498
[56] = tested on: OVCAR-5
[57] = tested on: HL-60
[58] = tested on: HCT-15
[59] = tested on: SK-OV-3

COc1ccc2oc(=O)cc(C)c2c1 was tested, and the GI50 [1] was > 100 µM (inactive), the GI50 [2] was > 100 µM (inactive) and the GI50 [3] was > 100 µM (inactive). For the same compound, the GI50 [4] was > 100 µM (inactive), the GI50 [5] was > 100 µM (inactive) and the GI50 [6] was > 100 µM (inactive). The GI50 [7] was > 100 µM (inactive), the GI50 [8] was > 100 µM (inactive) and the GI50 [9] was 21 µM (inactive). The GI50 [10] was > 100 µM (inactive), the GI50 [11] was > 100 µM (inactive) and the GI50 [12] was > 100 µM (inactive). The GI50 [13] was > 100 µM (inactive), the GI50 [14] was > 100 µM (inactive) and the GI50 [15] was > 100 µM (inactive). For the same compound, the GI50 [16] was > 100 µM (inactive), the GI50 [17] was > 100 µM (inactive) and the GI50 [18] was > 100 µM (inactive). For the same compound, the GI50 [19] was > 100 µM (inactive), the GI50 [20] was > 100 µM (inactive) and the GI50 [21] was > 100 µM (inactive). For the same compound, the GI50 [22] was > 100 µM (inactive), the GI50 [23] was > 100 µM (inactive) and the GI50 [24] was 91.4 µM (inactive). For the same compound, the GI50 [25] was > 100 µM (inactive), the GI50 [26] was > 100 µM (inactive) and the GI50 [27] was > 100 µM (inactive). The GI50 [28] was > 100 µM (inactive), the GI50 [29] was > 100 µM (inactive) and the GI50 [30] was > 100 µM (inactive). The GI50 [31] was > 100 µM (inactive), the GI50 [32] was > 100 µM (inactive) and the GI50 [33] was > 100 µM (inactive). For the same compound, the GI50 [34] was 88.5 µM (inactive), the GI50 [35] was > 100 µM (inactive) and the GI50 [36] was > 100 µM (inactive). The GI50 [37] was > 100 µM (inactive), the GI50 [38] was > 100 µM (inactive) and the GI50 [39] was > 100 µM (inactive). The GI50 [40] was > 100 µM (inactive), the GI50 [41] was > 100 µM (inactive) and the GI50 [42] was > 100 µM (inactive). The GI50 [43] was > 100 µM (inactive), the GI50 [44] was > 100 µM (inactive) and the GI50 [45] was > 100 µM (inactive). The GI50 [46] was > 100 µM (inactive), the GI50 [47] was > 100 µM (inactive) and the GI50 [48] was > 100 µM (inactive). The GI50 [49] was > 100 µM (inactive), the GI50 [50] was > 100 µM (inactive) and the GI50 [51] was 0.0733 µM (active). The GI50 [52] was > 100 µM (inactive), the GI50 [53] was > 100 µM (inactive) and the GI50 [54] was > 100 µM (inactive). For the same compound, the GI50 [55] was > 100 µM (inactive), the GI50 [56] was > 100 µM (inactive) and the GI50 [57] was > 100 µM (inactive).

For COc1ccccc1OC(=O)/C=C/c1ccccc1, the GI50 [1] was > 100 µM (inactive), the GI50 [2] was > 100 µM (inactive) and the GI50 [3] was > 100 µM (inactive). For the same compound, the GI50 [4] was > 100 µM (inactive), the GI50 [5] was > 100 µM (inactive) and the GI50 [6] was > 100 µM (inactive). The GI50 [8] was > 100 µM (inactive), the GI50 [9] was > 100 µM (inactive) and the GI50 [10] was 17.4 µM (inactive). The GI50 [11] was > 100 µM (inactive), the GI50 [12] was > 100 µM (inactive) and the GI50 [13] was > 100 µM (inactive). The GI50 [14] was > 100 µM (inactive), the GI50 [15] was > 100 µM (inactive) and the GI50 [58] was > 100 µM. The GI50 [16] was > 100 µM (inactive), the GI50 [17] was > 100 µM (inactive) and the GI50 [18] was > 100 µM (inactive). For the same compound, the GI50 [19] was > 100 µM (inactive), the GI50 [20] was > 100 µM (inactive) and the GI50 [21] was > 100 µM (inactive). The GI50 [22] was > 100 µM (inactive), the GI50 [23] was > 100 µM (inactive) and the GI50 [24] was > 100 µM (inactive). The GI50 [25] was > 100 µM (inactive), the GI50 [26] was > 100 µM (inactive) and the GI50 [27] was 52.1 µM (inactive). For the same compound, the GI50 [28] was 84.1 µM (inactive), the GI50 [29] was 40.2 µM (inactive) and the GI50 [30] was > 100 µM (inactive). For the same compound, the GI50 [31] was > 100 µM (inactive), the GI50 [32] was 5.33 µM (inactive) and the GI50 [33] was > 100 µM (inactive). For the same compound, the GI50 [34] was > 100 µM (inactive), the GI50 [35] was > 100 µM (inactive) and the GI50 [36] was > 100 µM (inactive). For the same compound, the GI50 [37] was > 100 µM (inactive), the GI50 [38] was > 100 µM (inactive) and the GI50 [39] was > 100 µM (inactive). The GI50 [40] was > 100 µM (inactive), the GI50 [41] was > 100 µM (inactive) and the GI50 [42] was > 100 µM (inactive). For the same compound, the GI50 [43] was 33 µM (inactive), the GI50 [44] was > 100 µM (inactive) and the GI50 [45] was 35.8 µM (inactive). For the same compound, the GI50 [46] was > 100 µM (inactive), the GI50 [48] was > 100 µM (inactive) and the GI50 [49] was > 100 µM (inactive). The GI50 [50] was > 100 µM (inactive), the GI50 [51] was > 100 µM (inactive) and the GI50 [52] was > 100 µM (inactive). The GI50 [53] was > 100 µM (inactive), the GI50 [54] was 52.1 µM (inactive) and the GI50 [55] was > 100 µM (inactive). The GI50 [59] was > 100 µM (inactive), the GI50 [56] was > 100 µM (inactive) and the GI50 [57] was 64.1 µM (inactive).
